Measurements from US20230278972A1, “SUBSTITUTED HALOALKYL SULFONANILIDE HERBICIDES” (FMC Corporation, priority 2020, published 2023).

Columns and labels:
Format in all cases: in vivo
[1] = tested on: blackgrass (Alopecurus myosuroides); assay: Test A1 preemergence, blackgrass
In short: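 Both timings started from seed in a loam-sand blend. Preemergence pots got a directed soil application immediately; postemergence pots were sprayed when seedlings had one or two leaves and stood 2–10 cm. Each compound was prepared in a non-phytotoxic solvent plus surfactant.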

[2] = tested on: Foxtail, Giant (giant foxtail, Setaria faberi); assay: Test A1 postemergence, Foxtail, Giant; conditions: for Foxtail, Giant plant response rating: postemergence; for Plant response rating, Foxtail, Giant: Postemergence
In short: (§1)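 Test compounds were formulated in a non-phytotoxic solvent mixture containing a surfactant. For preemergence, seeds sown in a loam soil–sand blend received a directed soil spray. For postemergence, potted plants in the same soil, 2 to 10 cm tall at the one- to two-leaf stage, were sprayed.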

[3] = tested on: barnyardgrass (Echinochloa crus-galli); assay: Test B1 flooded paddy test, barnyardgrass; conditions: 250 g ai/ha, Flood, applied to paddy water, 2-leaf stage, visually evaluated after 10 to 14 days
Excerpt: A dash (-) response means no test result.

[4] = tested on: blackgrass (Alopecurus myosuroides); assay: Test A1 postemergence, blackgrass; conditions: 0 to 100 scale (0 no effect, 100 complete control); for Plant response rating, Blackgrass: Postemergence; for Blackgrass plant response rating: postemergence
In short: as §1

[5] = tested on: horseweed (Erigeron canadensis); assay: Test A1 postemergence, horseweed; conditions: for Plant response rating, Horseweed: Postemergence; for Horseweed plant response rating: postemergence
In short: as §1

[6] = 31 g ai/ha, 0 to 100 scale (0 no effect, 100 complete control)
[7] = 125 g ai/ha, 0 to 100 scale, 0 no effect, 100 complete control
[8] = 31 g ai/ha, 0 to 100 scale (0 no effect, 100 complete control), 10 days
[9] = 125 g ai/ha, 0 to 100 scale (0 no effect, 100 complete control), 10 days

Compound	Plant response rating, Blackgrass [1, 6]	Plant response rating, Blackgrass [1, 7]	Foxtail, Giant plant response rating [2, 6]	Plant response rating, Foxtail, Giant ([2]; 125 g ai/ha, 0 to 100 scale)	Plant response rating, Barnyardgrass (0 to 100 scale, 0 is no effect, 100 is complete control) [3]	Plant response rating, Blackgrass ([4]; 31 g ai/ha, 10 days)	Plant response rating, Blackgrass ([4]; 125 g ai/ha)	Plant response rating, Horseweed [5, 8]	Plant response rating, Horseweed ([5]; 125 g ai/ha, 0 to 100 scale)	Plant response rating, Foxtail, Giant [2, 8]	Horseweed plant response rating [5, 6]	Plant response rating, Horseweed [5, 9]	Plant response rating, Foxtail, Giant [2, 9]	Blackgrass plant response rating ([4]; 31 g ai/ha)	Plant response rating, Blackgrass ([4]; 125 g ai/ha, 10 days)	Plant response rating, Blackgrass ([1]; 500 g ai/ha, 0 to 100 scale (0 no effect, 100 complete control))	Plant response rating, Foxtail, Giant ([2]; 500 g ai/ha, 0 to 100 scale)	Plant response rating, Blackgrass ([4]; 500 g ai/ha)
Cc1c(C(=O)N2C[C@@H](C)O[C@H](C)C2)cc(N(COC(=O)C(C)(C)C)S(=O)(=O)C(F)(F)F)c(C)c1C (relative stereo) [Compound 373]	30	30	0	60	95	0	10											
CCOC(=O)N(c1cc(C(=O)N2C[C@@H](C)O[C@H](C)C2)c(C)c(C)c1C)S(=O)(=O)C(F)(F)F (relative stereo) [Compound 374]	0	0	0	80	40	0	10											
Cc1c(C(=O)N2CCSCC2)cc(N(COC(=O)C(C)(C)C)S(=O)(=O)C(F)(F)F)c(C)c1C [Compound 285]				80	35	0	30	70	80	30								
CCOC(=O)N(c1cc(C(=O)N2CCSCC2)c(C)c(C)c1C)S(=O)(=O)C(F)(F)F [Compound 286]				80	15	0	40	0	60	80								
C#CCN(C)C(=O)c1cc(NS(=O)(=O)C(F)(F)F)c(C)c(C)c1C [Compound 368]	10	40	80	90	70	0	10											
Cc1c(C(=O)N2CCC(C)CC2)cc(N(COC(=O)C(C)(C)C)S(=O)(=O)C(F)(F)F)c(C)c1C [Compound 369]	0	0	20	90	90	0	0											
C#CCN(C)C(=O)c1cc(N(COC(=O)C(C)(C)C)S(=O)(=O)C(F)(F)F)c(C)c(C)c1C [Compound 371]	0	20	90	90	95	0	10											
Cc1cc(C)c(C2=NOC3OCCCC23)cc1NS(=O)(=O)C(F)(F)F (stereo not drawn) [Compound 372]	0	40	0	40	20	0	30				0							
Cc1ccc(C2=NOC3CCCC23)cc1NS(=O)(=O)C(F)(F)F (stereo not drawn) [Compound 377]			0	0	0	0	0		80		30							
CCc1cc(C)c(N(COC(=O)C(C)(C)C)S(=O)(=O)C(F)(F)F)cc1C1=NOC2CCCC12 (stereo not drawn) [Compound 378]			0	10	95	0	30		90		0							
Cc1cc(C)c(C2=NOC(C(C)C)C2)cc1NS(=O)(=O)C(F)(F)F (stereo not drawn) [Compound 381]			0		70						0	30	50	0	70			
Cc1c(C2=NOC3(CCCC3)C2)cc(N(COC(=O)C(C)(C)C)S(=O)(=O)C(F)(F)F)c(C)c1C [Compound 382]			0		90						0	50	50	0	0			
Cc1cc(C)c(N(COC(=O)C(C)(C)C)S(=O)(=O)C(F)(F)F)cc1C1=NOC(C(C)C)C1 (stereo not drawn) [Compound 383]			0		98						0	30	60	0	50			
Cc1cc(C)c(N2CC3(CCCCC3)CC2=O)cc1NS(=O)(=O)C(F)(F)F [Compound 392]	10	40	0		0						0	20	0	0	0			
Cc1cc(Cl)c(NS(=O)(=O)C(F)(F)F)cc1N1CCC2(CCCCC2)C1=O [Compound 393]	70	90	0		0						0	30	40					
Cc1cc(Cl)c(NS(=O)(=O)C(F)(F)F)cc1N1CC2(CCCCC2)OC1=O [Compound 394]	0	70	0		0						30	80	50					
Cc1cc(C)c(N(COC(=O)C(C)(C)C)S(=O)(=O)C(F)(F)F)cc1N1CCC2(CCC(F)(F)CC2)C1=O [Compound 397]		40			90								20		40	90	70	90
CCOc1cccc2c1C(=O)N(c1cc(N(COC(=O)C(C)(C)C)S(=O)(=O)Cl)c(C)cc1C)C2 [Compound 414]			0		0						0	70	0	0	30			
Cc1cc(C)c(N2Cc3cccc(Br)c3C2=O)cc1NS(=O)(=O)Cl [Compound 415]			0		85						60		30	0	40			
